*1 amine or outer side, *2 acyl side, *3 side chain or, on linkers, in order; H or OH if unused. Where a SMILES comes first, the peptide text is derived from it. Bridges are numbered along the chain shown (N, C = ends). [ ]: non-standard residue; d: D form. 2Nal = N[C@@H](Cc1ccc2ccccc2c1)C(=O)O; AEF = NCCOc1ccc(C[C@H](N)C(=O)O)cc1; X1 = O=C(Cc1ccc(CN[*:1])cc1)[*:2]; 3Pal = N[C@@H](Cc1cccnc1)C(=O)O; αMeL = CC(C)C[C@](C)(N)C(=O)O; Dab = NCC[C@H](N)C(=O)O; Sar = CNCC(=O)O
These compounds were tested on IL-23 mediated IFN-γ secretion (human whole blood) (assay: Functional inhibition of IL-23 mediated IFN-γ secretion in human whole blood). Conditions: Table 3-5, hIL-23 EC80 with hIL-2 and hIL-18.
Format: cell-based
Text: An in vitro human whole blood assay was used to assess the ability of IL23-R inhibitor compounds to inhibit IL-23-mediated IFN-γ secretion. The assay quantifies the functional antagonism of the IL23R inhibitors may be used to rank inhibitor potencies based on concentration response curves (CRCs) generated in the presence of fixed IL-23, IL-2 and IL-18 concentrations. […] and maximal inhibitory response may be calculated from the curves.
Human blood was obtained from voluntary donors at Blodbanken Hvidovre Hospital, Denmark on the day of the experiment by collection in BD Sodium-Heparin Vacutainer tubes [Cat #367876, Avantor].
The buffer used consisted of RPMI-1640 [Cat #61870-010; Thermo Fisher Scientific] supplemented with 1% V/V Penicillin-Streptomycin (Pen-Strep) Solution [Cat #15140; Thermo Fisher Scientific] and 1 mM Sodium Pyruvate [Cat #11360-039, Thermo Fisher Scientific] and 25 mM HEPES buffer [Cat #15630-056, Thermo Fisher Scientific] and 0.05% V/V Casein [Cat #C4765, Sigma-Aldrich] (hereafter referred to as assay buffer). […] A stimulatory solution of hIL-23 [Cat #11349-IL; R&D systems] corresponding to 4× the EC80 of hIL-23 (1.6 ng/ml) together with 4× hIL-2 [Cat #BT-002; R&D systems] (40 ng/ml) and 4× hIL-18 [Cat #9124-IL; R&D systems] (80 ng/ml) were also prepared in Assay buffer. To initiate the assay, 25 μL of the prepared 4× diluted test compound was added to the wells of a 96 well plate [Cat #167425; Thermo Scientific] followed by addition of 50 μL human whole blood to each well. Following the preincubation of the blood and inhibitor for 15 min in a cell incubator (37° C., 5% CO2), 25 μL of the prepared 4× stimulatory solution was added to each well and incubated for 16-24 hours in a humidity chamber in a cell incubator (37° C., 5% CO2).
To terminate the assay, 100 μL PBS pH 7.4 [Cat #10010-015; Thermo Fisher Scientific] was added to each well and the plate was spun at 350×G for ten minutes to pellet the blood. The supernatant was removed and added to a 96 well V-bottom Polypropylene plate [Corning 3363] using an 8-channel manual pipette.
Samples were diluted an additional 30× in Diluent 57 buffer from the MSD U-PLEX human IFN-γ assay [Cat #K151TTK-2; Mesoscale Discovery].
The IFN-γ level in the supernatant from the individual wells was determined using the MSD U-PLEX human IFN-γ assay kit [Cat #K151TTK-2; Mesoscale Discovery] and read on a Meso QuickPlex SQ 120 plate reader (Mesoscale Discovery).
For data analysis, raw data counts from the Meso QuickPlex SQ 120 plate reader were converted to concentrations of IFN-γ by using the standard curved supplied with the kit. Compound potency (IC50) and maximal inhibition (% inhibition) was estimated by computer-aided curve fitting using a 4-parameter logistic (4PL) non-linear mode. […] Maximal inhibition was expressed as a percentage where 0% is the activity level induced by the reference agonist alone ([…] together with IL-2 and IL-18 as indicated above), and 100% is the baseline activity level of the unstimulated receptor in the absence of the reference agonist.
Typically compounds with a low IC50 are desired. Typically compounds capable of completely inhibiting the IL23-induced response are desired.

SMILES	IC50 [nM]	maximal inhibition (%)
CNC(=O)CC[C@@H]1NC(=O)[C@H](Cc2c[nH]c3ccccc23)NC(=O)[C@@H]2CCC(=O)NCC[C@H](NC1=O)C(=O)N[C@@H](Cc1ccc(OCCN)cc1)C(=O)N[C@@H](Cc1ccc3ccccc3c1)C(=O)N[C@@](C)(CC(C)C)C(=O)N[C@H](C(=O)N[C@@H](CCN)C(=O)N[C@@H](Cc1cccnc1)C(=O)NC)CCC(=O)NCc1ccc(cc1)CC(=O)N[C@@H](CO)C(=O)N2 [Compound 29, [4-Aminomethyl-phenylacetyl](1c)*SE(2c)W[Q(Me)][Dab](2c)[Y(2-aminoethoxy)][2-Nal][2-Me-Leu]E(1c)[Dab][3-(3-Pyridyl)-Ala]-[NHMe]] ([X1]SEWE(NHMe)[Dab][AEF][2Nal][αMeL]E[Dab][3Pal]-NHMe; lactam 3-6, N-10)	0.54	96
CNC(=O)[C@H](Cc1cccnc1)NC(=O)[C@H](CCN)NC(=O)[C@@H]1CCC(=O)NCc2ccc(cc2)CC(=O)N[C@@H](C)C(=O)N[C@H]2CCC(=O)NCC[C@H](NC(=O)[C@H](CCC(N)=O)NC(=O)[C@H](Cc3c[nH]c4ccccc34)NC2=O)C(=O)N[C@@H](Cc2c[nH]c3ncccc23)C(=O)N[C@@H](Cc2ccc3ccccc3c2)C(=O)NC(C)(C)C(=O)N1 [Compound 43, [4-Aminomethyl-phenylacetyl](1c)*AE(2c)WQ[Dab](2c)[7-AzaTrp][2-Nal][Aib]E(1c)[Dab][3-(3-Pyridyl)-Ala]-[NHMe]]	3.9	102
CNC(=O)[C@H](Cc1cccnc1)NC(=O)[C@H](CCN)NC(=O)[C@@H]1CCC(=O)NCc2ccc(cc2)CC(=O)N[C@@H](C)C(=O)N[C@H]2CCC(=O)NCC[C@H](NC(=O)[C@H](CCC(N)=O)NC(=O)[C@H](Cc3c[nH]c4ccccc34)NC2=O)C(=O)N[C@@H](Cc2ccc(OCCN)cc2)C(=O)N[C@@H](Cc2ccc3ccccc3c2)C(=O)N[C@@](C)(CC(C)C)C(=O)N1 [Compound 20, [4-Aminomethyl-phenylacetyl](1c)*AE(2c)WQ[Dab](2c)[Y(2-aminoethoxy)][2-Nal][2-Me-Leu]E(1c)[Dab][3-(3-Pyridyl)-Ala]-[NHMe]]	0.64	97

These reach a lower IC50. Values come first.

IC50 [nM]	SMILES	maximal inhibition (%)
0.33	CNC(=O)[C@H](Cc1cccnc1)NC(=O)[C@H](CCN)NC(=O)[C@@H]1CCC(=O)NCc2ccc(cc2)CC(=O)N[C@@H](CO)C(=O)N[C@H]2CCC(=O)NCC[C@H](NC(=O)[C@H](CCC(N)=O)NC(=O)[C@H](Cc3c[nH]c4ccccc34)NC2=O)C(=O)N[C@@H](Cc2ccc(OCCN)cc2)C(=O)N[C@@H](Cc2ccc3ccccc3c2)C(=O)N[C@@](C)(CC(C)C)C(=O)N1 [Compound 8, [4-Aminomethyl-phenylacetyl](1c)*SE(2c)WQ[Dab](2c)[Y(2-aminoethoxy)][2-Nal][2-Me-Leu]E(1c)[Dab][3-(3-Pyridyl)-Ala]-[NHMe]]	96
0.21	CC(C)C[C@]1(C)NC(=O)[C@H](Cc2ccc3ccccc3c2)NC(=O)[C@H](Cc2ccc(OCCN)cc2)NC(=O)[C@@H]2CCNC(=O)CC[C@H](NC(=O)[C@H](CO)NC(=O)Cc3ccc(cc3)CNC(=O)CC[C@@H](C(=O)N[C@@H](CCN)C(=O)N[C@@H](Cc3cccnc3)C(=O)N(C)CC(N)=O)NC1=O)C(=O)N[C@@H](Cc1c[nH]c3ccccc13)C(=O)N[C@@H](CCC(N)=O)C(=O)N2 [Compound 9, [4-Aminomethyl-phenylacetyl](1c)*SE(2c)WQ[Dab](2c)[Y(2-aminoethoxy)][2-Nal][2-Me-Leu]E(1c)[Dab][3-(3-Pyridyl)-Ala][Sar]-[NH2]] ([X1]SEWQ[Dab][AEF][2Nal][αMeL]E[Dab][3Pal][Sar]-NH2; lactam 3-6, N-10)	97

— patent US20260327264A1, “PEPTIDE INHIBITORS OF INTERLEUKIN-23 RECEPTOR” (Zealand Pharma A/S, priority 2023, published 2026)
